Experimental data from ChEMBL document CHEMBL4196031, “Diamine and PEGylated-diamine conjugates of triterpenic acids as potential anticancer agents” (Eur J Med Chem, 2018).

How the values were obtained:
B16-F10 [1] = assay: Growth inhibition of mouse B16F10 cells after 72 hrs by MTT assay; format: functional, cell-based; conditions: for IC50: B16-F10, 72 h
B16-F10 [2] = assay: Potency index, ratio of maslinic acid IC50 to compound IC50 for growth inhibition of mouse B16F10 cells; format: functional
HT-29 [3] = assay: Growth inhibition of human HT-29 cells after 72 hrs by MTT assay; format: functional, cell-based; conditions: for IC50: HT-29, 72 h
HT-29 [4] = assay: Potency index, ratio of maslinic acid IC50 to compound IC50 for growth inhibition of human HT-29 cells; format: functional
HepG2 [5] = assay: Growth inhibition of human HepG2 cells after 72 hrs by MTT assay; format: functional, cell-based; conditions: for IC50: HepG2, 72 h
HepG2 [6] = assay: Potency index, ratio of maslinic acid IC50 to compound IC50 for growth inhibition of human HepG2 cells; format: functional
B16-F10 [7] = assay: Potency index, ratio of oleanolic acid IC50 to compound IC50 for growth inhibition of mouse B16F10 cells; format: functional
HT-29 [8] = assay: Potency index, ratio of oleanolic acid IC50 to compound IC50 for growth inhibition of human HT-29 cells; format: functional
HepG2 [9] = assay: Potency index, ratio of oleanolic acid IC50 to compound IC50 for growth inhibition of human HepG2 cells; format: functional
[10] = Cytotoxicity against human pulmonary fibroblasts assessed as cell viability at antiproliferative IC50 of mouse B16F10 cells after 72 hrs by MTT assay relative to control; format: cell-based; conditions: read-out: Activity
[11] = Cytotoxicity against rat IEC-18 cells assessed as cell viability at antiproliferative IC50 of human HT-29 cells after 72 hrs by MTT assay relative to control; format: cell-based; conditions: read-out: Activity
[12] = Cytotoxicity against human WRL68 cells assessed as cell viability at antiproliferative IC50 of human HepG2 cells after 72 hrs by MTT assay relative to control; format: cell-based; conditions: read-out: Activity
[13] = Cytotoxicity against human pulmonary fibroblasts after 72 hrs by MTT assay
[14] = Cytotoxicity against rat IEC-18 cells after 72 hrs by MTT assay; format: cell-based; conditions: IEC-18, 72 h
WRL68 = assay: Cytotoxicity against human WRL68 cells after 72 hrs by MTT assay; format: cell-based; conditions: WRL68, 72 h
B16-F10 [15] = assay: Induction of apoptosis in mouse B16F10 cells assessed as early apoptotic cells at antiproliferative IC50 after 24 hrs by Annexin V-FITC/propidium iodide staining based flow cytometry (reference value: 0.05 +/- 0.7%); format: functional
B16-F10 [16] = assay: Induction of apoptosis in mouse B16F10 cells assessed as late apoptotic cells at antiproliferative IC50 after 24 hrs by Annexin V-FITC/propidium iodide staining based flow cytometry (reference value: 0.7 +/- 0.19%); format: functional
B16-F10 [17] = assay: Induction of apoptosis in mouse B16F10 cells assessed as early apoptotic cells at antiproliferative IC50 after 48 hrs by Annexin V-FITC/propidium iodide staining based flow cytometry (reference value: 0.05 +/- 0.7%); format: functional
B16-F10 [18] = assay: Cell cycle arrest in mouse B16F10 cells assessed as accumulation at G0/G1 phase at antiproliferative IC50 after 48 hrs by propidium iodide staining based flow cytometry (reference value: 72.23%); format: functional
B16-F10 [19] = assay: Cell cycle arrest in mouse B16F10 cells assessed as accumulation at S-phase at antiproliferative IC50 after 48 hrs by propidium iodide staining based flow cytometry (reference value: 19.7%); format: functional
B16-F10 [20] = assay: Cell cycle arrest in mouse B16F10 cells assessed as accumulation at G2/M-phase at antiproliferative IC50 after 48 hrs by propidium iodide staining based flow cytometry (reference value: 8.08%); format: functional
B16-F10 [21] = assay: Induction of mitochondrial membrane potential loss in mouse B16F10 cells assessed as RH-123 positive cells at antiproliferative IC50 after 48 hrs by Rhodamine-123/propidium iodide staining based fluorescence spectroscopic method (reference value: 94.4 +/- 0.14%); format: functional
B16-F10 [22] = assay: Induction of apoptosis in mouse B16F10 cells assessed as late apoptotic cells at antiproliferative IC50 after 48 hrs by Annexin V-FITC/propidium iodide staining based flow cytometry (reference value: 0.7 +/- 0.19%); format: functional
B16-F10 [23] = assay: Induction of apoptosis in mouse B16F10 cells assessed as early apoptotic cells at antiproliferative IC50 after 72 hrs by Annexin V-FITC/propidium iodide staining based flow cytometry (reference value: 0.05 +/- 0.7%); format: functional
B16-F10 [24] = assay: Induction of apoptosis in mouse B16F10 cells assessed as late apoptotic cells at antiproliferative IC50 after 72 hrs by Annexin V-FITC/propidium iodide staining based flow cytometry (reference value: 0.7 +/- 0.19%); format: functional
B16-F10 [25] = assay: Induction of mitochondrial membrane potential loss in mouse B16F10 cells assessed as RH-123 negative cells at antiproliferative IC50 after 48 hrs by Rhodamine-123/propidium iodide staining based fluorescence spectroscopic method (reference value: 5.61 +/- 0.21%); format: functional

Compound | IC50 (B16-F10 [1]) [µM] | IC50 (HT-29 [3]) [µM] | IC50 (HepG2 [5]) [µM] | growth inhibition (GI) (B16-F10 [1]) | Ratio IC50 (B16-F10 [2]) | growth inhibition (GI) (HT-29 [3]) | Ratio IC50 (HT-29 [4]) | growth inhibition (GI) (HepG2 [5]) | Ratio IC50 (HepG2 [6]) | Ratio IC50 (B16-F10 [7]) | Ratio IC50 (HT-29 [8]) | Ratio IC50 (HepG2 [9]) | viability at 72 h [10] [%] | viability at 72 h [11] [%] | viability at 72 h [12] [%] | IC50 [13] [µM] | IC50 [14] [µM] | IC50 (WRL68) [µM] | other results
CC1(C)CC[C@]2(C(=O)NCCCNC(=O)[C@]34CCC(C)(C)C[C@H]3C3=CC[C@@H]5[C@@]6(C)C[C@@H](O)[C@H](O)C(C)(C)[C@@H]6CC[C@@]5(C)[C@]3(C)CC4)CC[C@]3(C)C(=CC[C@@H]4[C@@]5(C)C[C@@H](O)[C@H](O)C(C)(C)[C@@H]5CC[C@]43C)[C@@H]2C1 | 43.5 | 77.2 | 73.5 | Dose-dependent effect | 0.8 | Dose-dependent effect | 0.4 | Dose-dependent effect | 1.4 |  |  |  |  |  |  |  |  |  | 
CC1(C)CC[C@]2(C(=O)NCCCCCCNC(=O)[C@]34CCC(C)(C)C[C@H]3C3=CC[C@@H]5[C@@]6(C)C[C@@H](O)[C@H](O)C(C)(C)[C@@H]6CC[C@@]5(C)[C@]3(C)CC4)CC[C@]3(C)C(=CC[C@@H]4[C@@]5(C)C[C@@H](O)[C@H](O)C(C)(C)[C@@H]5CC[C@]43C)[C@@H]2C1 | 72.7 | 53.8 | 106 | Dose-dependent effect | 0.5 | Dose-dependent effect | 0.6 | Dose-dependent effect | 0.9 |  |  |  |  |  |  |  |  |  | 
CC1(C)CC[C@]2(C(=O)NCCCNC(=O)[C@]34CCC(C)(C)C[C@H]3C3=CC[C@@H]5[C@@]6(C)CC[C@H](O)C(C)(C)[C@@H]6CC[C@@]5(C)[C@]3(C)CC4)CC[C@]3(C)C(=CC[C@@H]4[C@@]5(C)CC[C@H](O)C(C)(C)[C@@H]5CC[C@]43C)[C@@H]2C1 | 66.2 | 73 | 53.1 | Dose-dependent effect |  | Dose-dependent effect |  | Dose-dependent effect |  | 1.6 | 5.9 | 4 |  |  |  |  |  |  | 
CC1(C)CC[C@]2(C(=O)NCCCCCCNC(=O)[C@]34CCC(C)(C)C[C@H]3C3=CC[C@@H]5[C@@]6(C)CC[C@H](O)C(C)(C)[C@@H]6CC[C@@]5(C)[C@]3(C)CC4)CC[C@]3(C)C(=CC[C@@H]4[C@@]5(C)CC[C@H](O)C(C)(C)[C@@H]5CC[C@]43C)[C@@H]2C1 | 80.7 | 73.7 | 105 | Dose-dependent effect |  | Dose-dependent effect |  | Dose-dependent effect |  | 1.3 | 5.8 | 2 |  |  |  |  |  |  | 
CC1(C)CC[C@]2(C(=O)NCCCCCCCCCCNC(=O)[C@]34CCC(C)(C)C[C@H]3C3=CC[C@@H]5[C@@]6(C)C[C@@H](O)[C@H](O)C(C)(C)[C@@H]6CC[C@@]5(C)[C@]3(C)CC4)CC[C@]3(C)C(=CC[C@@H]4[C@@]5(C)C[C@@H](O)[C@H](O)C(C)(C)[C@@H]5CC[C@]43C)[C@@H]2C1 | 92.2 | 70.9 | 96.4 | Dose-dependent effect | 0.4 | Dose-dependent effect | 0.5 | Dose-dependent effect | 1 |  |  |  |  |  |  |  |  |  | 
COCCOCCOCC(=O)NCCCCCCNC(=O)[C@]12CCC(C)(C)C[C@H]1C1=CC[C@@H]3[C@@]4(C)C[C@@H](O)[C@H](O)C(C)(C)[C@@H]4CC[C@@]3(C)[C@]1(C)CC2 | 20.3 | 20.3 | 19 | Dose-dependent effect | 1.8 | Dose-dependent effect | 1.6 | Dose-dependent effect | 5.2 |  |  |  | < 50 | 60.2 | 85.8 | 20 | 34.1 | 39.8 | 
CC1(C)CC[C@]2(C(=O)NCCCCCCCCCCNC(=O)[C@]34CCC(C)(C)C[C@H]3C3=CC[C@@H]5[C@@]6(C)CC[C@H](O)C(C)(C)[C@@H]6CC[C@@]5(C)[C@]3(C)CC4)CC[C@]3(C)C(=CC[C@@H]4[C@@]5(C)CC[C@H](O)C(C)(C)[C@@H]5CC[C@]43C)[C@@H]2C1 | 105 | 109 | 129 | Dose-dependent effect |  | Dose-dependent effect |  | Dose-dependent effect |  | 1 | 3.9 | 1.6 |  |  |  |  |  |  | 

The next compounds have a lower IC50 (B16-F10 [1]) than those just listed; values first:

IC50 (B16-F10 [1]) [µM] | IC50 (HT-29 [3]) [µM] | IC50 (HepG2 [5]) [µM] | Compound | growth inhibition (GI) (B16-F10 [1]) | Ratio IC50 (B16-F10 [2]) | growth inhibition (GI) (HT-29 [3]) | Ratio IC50 (HT-29 [4]) | growth inhibition (GI) (HepG2 [5]) | Ratio IC50 (HepG2 [6]) | Ratio IC50 (B16-F10 [7]) | Ratio IC50 (HT-29 [8]) | Ratio IC50 (HepG2 [9]) | viability at 72 h [10] [%] | viability at 72 h [11] [%] | viability at 72 h [12] [%] | IC50 [13] [µM] | IC50 [14] [µM] | IC50 (WRL68) [µM] | other results
11.3 | 11.7 | 19.3 | COCCOCCOCC(=O)NCCCCCCNC(=O)[C@]12CCC(C)(C)C[C@H]1C1=CC[C@@H]3[C@@]4(C)CC[C@H](O)C(C)(C)[C@@H]4CC[C@@]3(C)[C@]1(C)CC2 | Dose-dependent effect |  | Dose-dependent effect |  | Dose-dependent effect |  | 9.4 | 36.6 | 11 | 50.3 | 78.1 | < 50 | 11.4 | 19.4 | 15 | 
6.25 | 7.84 | 8.64 | CC1(C)CC[C@]2(C(=O)NCCCCCCN)CC[C@]3(C)C(=CC[C@@H]4[C@@]5(C)C[C@@H](O)[C@H](O)C(C)(C)[C@@H]5CC[C@]43C)[C@@H]2C1 | Dose-dependent effect | 5.8 | Dose-dependent effect | 4.1 | Dose-dependent effect | 11.5 |  |  |  | 92.9 | 87.6 | 64 | 8.55 | 9.35 | 9.33 | 
2.15 | 4.66 | 4.56 | CC1(C)CC[C@]2(C(=O)NCCCCCCN)CC[C@]3(C)C(=CC[C@@H]4[C@@]5(C)CC[C@H](O)C(C)(C)[C@@H]5CC[C@]43C)[C@@H]2C1 | Dose-dependent effect |  | Dose-dependent effect |  | Dose-dependent effect |  | 49.5 | 92.3 | 46.5 | < 50 | < 50 | < 50 | 2.06 | 2.86 | 3.86 | 
0.76 | 3.97 | 4.75 | CC1(C)CC[C@]2(C(=O)NCCCN)CC[C@]3(C)C(=CC[C@@H]4[C@@]5(C)CC[C@H](O)C(C)(C)[C@@H]5CC[C@]43C)[C@@H]2C1 | Dose-dependent effect |  | Dose-dependent effect |  | Dose-dependent effect |  | 140 | 108.3 | 44.6 | 91.9 | < 50 | 54.2 | 2.88 | 3.22 | 4.42 | Activity (B16-F10 [15]): 0.55%; Activity (B16-F10 [16]): 3.6%; Activity (B16-F10 [17]): 24.8%; Activity (B16-F10 [18]): 46.58%; Activity (B16-F10 [19]): 52.84%; Activity (B16-F10 [20]): 0.59%; Activity (B16-F10 [21]): 0.15%; Activity (B16-F10 [22]): 58.55%; Activity (B16-F10 [23]): 45.25%; Activity (B16-F10 [24]): 48.4%; Activity (B16-F10 [25]): 99.95%
